Results: US10028914B2, “Reduction type coenzyme Q10 powder, composition thereof, and preparation method thereof” (Zhejiang Medicine Co., Ltd. Xinchang Pharmaceutical Factory, priority 2013, dated 2018)
Like-named read-outs stand apart in the source and are kept apart here.

Legend:
[1] = Stability experiment: retention rate of reduced coenzyme Q10 on storage; format: physicochemical; details: stored under shading or nitrogen at 18° C.
Description: Determining the proportion of reduced coenzyme Q10 in reduced coenzyme Q10 powder or crystals by the HPLC method. Determination conditions are as follows:
Instruments: Agilient 1210
Mobile phase: ethanol/methanol=4/3(V/V)
Detection wavelength: 210 nm
Sample 1 and Sample 2 and Sample 3 obtained by Example 1, Example 2, Example 3 are respectively stored under shading or nitrogen for two months at 18° C. The retention rate of reduced coenzyme Q10 is respectively determined within 1 month and 2 months.

[2] = Beagle feeding experiment: pharmacokinetic parameters and relative bioavailability; format: in vivo; details: gastric gavage 20 mg/kg, average
Description: Sample 1 and Sample 2 and Sample 3 obtained by Example 1, Example 2, Example 3 are used for beagle feeding experiment respectively, and the reduced coenzyme Q10 concentration in blood of feed beagle is determined, a basic pharmacokinetic parameters and relative bioavailability is calculated.
4 beagles, half male and half female, 9-12 kg weight, provided by Shanghai Institute of Medicine Center for experimental animals, laboratory animals use license: SYXK (Shanghai), 2010-0049. A cross double cycle test is made. Gastric gavage is respectively for Sample 1, 2, 3, to fill stomach in a dose of 20 mg/kg, a delivery volume of 2 ml/kg. Samples with a suspension of soybean oil mixture for medicine (filling water 20 ml after feeding), normally feeding and drinking before testing, feeding feed containing meat on morning of the same day of feeding the medicine, to fill the stomach after 30 min. Two cycle tests are interval for a week.
Calculate the Pharmacokinetic Parameters of Compounds by WinNonlin 5.3 Software.
Peak-reaching time Tmax and peak-reaching concentration Cmax use measured values. Drug concentration area under time curve AUC0-t value is calculated by the trapezoidal method, AUC0-∞ is calculated by the formula AUC0-∞=AUC0-t+Ct/ke. Ct is a concentration measured by the last time point, ke is an eliminate rate constant, with half logarithmic mapping method, calculation by eliminating the concentration of the phase; Plasma elimination half-life t1/2=0.693/ke. Relative bioavailability F=(AUC0-t, Sample 2 or 3/AUC0-t, Sample 1)×100%. The main pharmacokinetic parameters after Beagle lavage for 20 mg/kg sample.

[3] = both sexes, dog, blood, po, 20 mg/kg, suspension in soybean oil

Row | SMILES | The retention rate of reduced coenzyme Q10 within 1 month [1] [%] | The retention rate of reduced coenzyme Q10 within 2 months [1] [%] | The retention rate of reduced coenzyme Q10 within 2 months ([1]; listed as reduced coenzyme Q10 powder obtained by the method) [%] | AUC0-t ([2]; suspension in soybean oil) [ng·h/mL] | AUC0-∞ ([2]; suspension in soybean oil) [ng·h/mL] | Cmax ([2]; suspension in soybean oil) [ng/mL] | MRT ([2]; suspension in soybean oil) [h] | Tmax ([2]; suspension in soybean oil) [h] | t1/2 ([2]; suspension in soybean oil) [h] | The retention rate of reduced coenzyme Q10 within 2 months ([1]; listed as Samples 2) [%] | bioavailability ([2]; both sexes, dog, blood, po, 20 mg/kg, F=(AUC0-t, Sample 2 or 3/AUC0-t, Sample 1)×100%) [%] | AUC(0-inf) [2, 3] [ng·h/mL] | half-life [2, 3] [h] | AUC0-t ([2]; both sexes, dog, blood, po, 20 mg/kg, suspension in soybean oil, read-out: AUC0-t) [ng·h/mL] | Cmax ([2]; both sexes, dog, blood, po, 20 mg/kg, suspension in soybean oil, read-out: Cmax) [ng/mL] | MRT ([2]; both sexes, dog, blood, po, 20 mg/kg, suspension in soybean oil, read-out: MRT) [h] | Tmax ([2]; both sexes, dog, blood, po, 20 mg/kg, suspension in soybean oil, read-out: Tmax) [h]
1 | COc1c(O)c(C)c(C/C=C(\C)CC/C=C(\C)CC/C=C(\C)CC/C=C(\C)CC/C=C(\C)CC/C=C(\C)CC/C=C(\C)CC/C=C(\C)CC/C=C(\C)CCC=C(C)C)c(O)c1OC [Sample 1, reduced coenzyme Q10] | 98.4 | 95.5 | 95.5 | 3640 | 2865 | 303 | 10.9 | 7.5 | 6.11 |  |  |  |  |  |  |  | 
2 | COc1c(O)c(C)c(C/C=C(\C)CC/C=C(\C)CC/C=C(\C)CC/C=C(\C)CC/C=C(\C)CC/C=C(\C)CC/C=C(\C)CC/C=C(\C)CC/C=C(\C)CCC=C(C)C)c(O)c1OC [Sample 2, reduced coenzyme Q10] | 75.4 | 66.3 |  | 2359 | 2405 | 261 | 7.77 | 4.5 | 3.94 | 66.3 |  |  |  |  |  |  | 
3 | COc1c(O)c(C)c(C/C=C(\C)CC/C=C(\C)CC/C=C(\C)CC/C=C(\C)CC/C=C(\C)CC/C=C(\C)CC/C=C(\C)CC/C=C(\C)CC/C=C(\C)CCC=C(C)C)c(O)c1OC [Sample 3, reduced coenzyme Q10] | 89.3 | 85.4 |  |  |  |  |  |  |  |  | 74.7 | 2660 | 4.76 | 2760 | 287 | 8.35 | 6.3
